In brackets after ≈: the same amount, converted by molar mass. Like-named read-outs stand apart in the source and are kept apart here.
Key:
Format in all cases: cell-based
[1] = test system: Streptococcus pneumoniae (ATCC 49619); assay: Antibacterial MIC assay (microbroth dilution, CLSI)
In short: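 S. pneumoniae at 5×10^5 CFU/mL (from 0.5 McFarland saline suspension) was tested against 2-fold serial compound dilutions in cation-adjusted Mueller-Hinton broth plus 3% lysed horse blood, per CLSI M07-A10/M100-S25 microdilution guidelines.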

[2] = test system: Staphylococcus aureus, MRSA (ATCC 33591); assay: as above; conditions: read-out: MIC Staphylococcus aureus, MRSA (ATCC 33591)
In short: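 Compound 2-fold dilution series tested against 5×10^5 CFU/mL bacteria prepared from 0.5 McFarland saline suspensions of overnight colonies. Medium was cation-adjusted Mueller-Hinton broth, supplemented with 3% lysed horse blood for the fastidious pneumococcus. Protocol followed CLSI M07-A10 and M100-S25.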

[3] = test system: Wolbachia pipientis in C6/36 cell line; assay: Anti-Wolbachia high-content assay; conditions: read-out: EC50 Wolbachia pipientis in C6/36 cell line
Description: After 15 minutes, all media was removed from each well and fresh media (no stain) was added. Imaging of each well was accomplished using a Perkin Elmer Operetta high-content imaging system. Five fields per well were imaged using a confocal 60× objective with the Fluorescein filter (excitation filter: 460-490 nm; emission filter: 500-550 nm). Images were analyzed using the Perkin Elmer Harmony software to score each intact cell on the basis of texture complexity of the cytoplasm. Full details can be found in: […]. et al, J. Biomol.

[4] = ATCC49619, microbroth dilution, 3% lysed horse blood, 35° C. for 16-20 hours, read-out: MIC Streptococcus pneumoniae (ATCC 49619)
[5] = microbroth dilution, cation-adjusted Mueller-Hinton broth, 35° C. for 16-20 hours
[6] = C6/36 (wAlbB) cells, 7 days at 26° C., 50% reduction of Wolbachia

Structure (SMILES)	MIC [1, 4] [µg/mL]	MIC [2, 5] [µg/mL]	EC50 [3, 6] [µM]	MIC ([1]; ATCC49619, read-out: MIC Streptococcus pneumoniae (ATCC 49619)) [µg/mL]	MIC [2] [µg/mL]	EC50 ([3]; C6/36, […]) [µM]
C=C[C@]1(C)C[C@@H](OC(=O)COc2ccc3c(c2)B(O)N(S(C)(=O)=O)N=C3)[C@]2(C)[C@H](C)CC[C@]3(C[C@H](O)C(=O)[C@H]32)[C@@H](C)[C@@H]1O [Compound 78, (2S,3aR,4R,5R,7S,8S,9R,9aS,12R)-2,8-dihydroxy-4,7,9,12-tetramethyl-3-oxo-7-vinyldecahydro-4,9a-propanocyclopenta[8]annulen-5-yl 2-((1-hydroxy-2-(methylsulfonyl)-1,2-dihydrobenzo[d][1,2,3]diazaborinin-7-yl)oxy)acetate]	0.5 to 2 (≈ 0.811 to 3.24 µM)	0.5 to 2 (≈ 0.811 to 3.24 µM)	0.013	–	–	–
C=C[C@]1(C)C[C@@H](OC(=O)COc2ccc3c(c2)B(O)N(S(C)(=O)=O)N=C3)[C@]2(C)[C@H](C)CC[C@]3(C[C@H](F)C(=O)[C@H]32)[C@@H](C)[C@@H]1O [Compound 79, (2S,3aR,4R,5R,7S,8S,9R,9aS,12R)-2-fluoro-8-hydroxy-4,7,9,12-tetramethyl-3-oxo-7-vinyldecahydro-4,9a-propanocyclopenta[8]annulen-5-yl 2-((1-hydroxy-2-(methylsulfonyl)-1,2-dihydrobenzo[d][1,2,3]diazaborinin-7-yl)oxy)acetate]	0.5 to 2 (≈ 0.808 to 3.23 µM)	0.5 to 2 (≈ 0.808 to 3.23 µM)	0.056	–	–	–
C=C[C@]1(C)C[C@@H](OC(=O)COc2ccc3c(c2F)B(O)NN=C3)[C@]2(C)[C@H](C)CC[C@]3(CCC(=O)[C@H]32)[C@@H](C)[C@@H]1O [Compound 81, (3aR,4R,5R,7S,8S,9R,9aS,12R)-8-hydroxy-4,7,9,12-tetramethyl-3-oxo-7-vinyldecahydro-4,9a-propanocyclopenta[8]annulen-5-yl 2-((8-fluoro-1-hydroxy-1,2-dihydrobenzo[d][1,2,3]diazaborinin-7-yl)oxy)acetate]	–	–	–	< 0.25	< 0.25	0.034
C=C[C@]1(C)C[C@@H](OC(=O)COc2ccc3c(c2)B(O)N(C)N=C3)[C@]2(C)[C@H](C)CC[C@]3(C[C@H](O)C(=O)[C@H]32)[C@@H](C)[C@@H]1O [Compound 82, (2S,3aR,4R,5R,7S,8S,9R,9aS,12R)-2,8-dihydroxy-4,7,9,12-tetramethyl-3-oxo-7-vinyldecahydro-4,9a-propanocyclopenta[8]annulen-5-yl 2-((1-hydroxy-2-methyl-1,2-dihydrobenzo[d][1,2,3]diazaborinin-7-yl)oxy)acetate]	< 0.25	0.5 to 2 (≈ 0.905 to 3.62 µM)	0.036	–	–	–
C=C[C@]1(C)C[C@@H](OC(=O)COc2ccc3c(c2)B(O)ON=C3)[C@]2(C)[C@H](C)CC[C@]3(C[C@H](O)C(=O)[C@H]32)[C@@H](C)[C@@H]1O [Compound 98, (2S,3aR,4R,5R,7S,8S,9R,9aS,12R)-2,8-dihydroxy-4,7,9,12-tetramethyl-3-oxo-7-vinyldecahydro-4,9a-propanocyclopenta[8]annulen-5-yl 2-((1-hydroxy-1H-benzo[d][1,2,6]oxazaborinin-7-yl)oxy)acetate]	0.5 to 2 (≈ 0.927 to 3.71 µM)	0.5 to 2 (≈ 0.927 to 3.71 µM)	0.063	–	–	–
C=C[C@]1(C)C[C@@H](OC(=O)COc2ccc3c(c2)B(O)ON=C3)[C@]2(C)[C@H](C)CC[C@]3(C[C@H](F)C(=O)[C@H]32)[C@@H](C)[C@@H]1O [Compound 99, (2S,3aR,4R,5R,7S,8S,9R,9aS,12R)-2-fluoro-8-hydroxy-4,7,9,12-tetramethyl-3-oxo-7-vinyldecahydro-4,9a-propanocyclopenta[8]annulen-5-yl 2-((1-hydroxy-1H-benzo[d][1,2,6]oxazaborinin-7-yl)oxy)acetate]	0.5 to 2 (≈ 0.923 to 3.69 µM)	0.5 to 2 (≈ 0.923 to 3.69 µM)	0.013	–	–	–

More lines, main results first:

MIC [1, 4] [µg/mL]	MIC [2, 5] [µg/mL]	EC50 [3, 6] [µM]	Structure (SMILES)	MIC ([1]; ATCC49619, read-out: MIC Streptococcus pneumoniae (ATCC 49619)) [µg/mL]	MIC [2] [µg/mL]	EC50 ([3]; C6/36, […]) [µM]
0.5 to 2 (≈ 0.902 to 3.61 µM)	0.5 to 2 (≈ 0.902 to 3.61 µM)	0.078	C=C[C@]1(C)C[C@@H](OC(=O)COc2ccc3c(c2)B(O)N(C)N=C3)[C@]2(C)[C@H](C)CC[C@]3(C[C@H](F)C(=O)[C@H]32)[C@@H](C)[C@@H]1O [Compound 84, (2S,3aR,4R,5R,7S,8S,9R,9aS,12R)-2-fluoro-8-hydroxy-4,7,9,12-tetramethyl-3-oxo-7-vinyldecahydro-4,9a-propanocyclopenta[8]annulen-5-yl 2-((1-hydroxy-2-methyl-1,2-dihydrobenzo[d][1,2,3]diazaborinin-7-yl)oxy)acetate]	–	–	–
0.5 to 2 (≈ 0.861 to 3.45 µM)	< 0.25	0.001	C=C[C@]1(C)C[C@@H](OC(=O)COc2ccc3c(c2)B(O)N(C(C)=O)N=C3)[C@]2(C)[C@H](C)CC[C@]3(C[C@H](O)C(=O)[C@H]32)[C@@H](C)[C@@H]1O [Compound 86, (2S,3aR,4R,5R,7S,8S,9R,9aS,12R)-2,8-dihydroxy-4,7,9,12-tetramethyl-3-oxo-7-vinyldecahydro-4,9a-propanocyclopenta[8]annulen-5-yl 2-((2-acetyl-1-hydroxy-1,2-dihydrobenzo[d][1,2,3]diazaborinin-7-yl)oxy)acetate]	–	–	–
0.5 to 2 (≈ 0.858 to 3.43 µM)	< 0.25	0.004	C=C[C@]1(C)C[C@@H](OC(=O)COc2ccc3c(c2)B(O)N(C(C)=O)N=C3)[C@]2(C)[C@H](C)CC[C@]3(C[C@H](F)C(=O)[C@H]32)[C@@H](C)[C@@H]1O [Compound 88, (2S,3aR,4R,5R,7S,8S,9R,9aS,12R)-2-fluoro-8-hydroxy-4,7,9,12-tetramethyl-3-oxo-7-vinyldecahydro-4,9a-propanocyclopenta[8]annulen-5-yl 2-((2-acetyl-1-hydroxy-1,2-dihydrobenzo[d][1,2,3]diazaborinin-7-yl)oxy)acetate]	–	–	–
0.5 to 2 (≈ 0.838 to 3.35 µM)	< 0.25	0.003	C=C[C@]1(C)C[C@@H](OC(=O)COc2ccc3c(c2)B(O)N(C(=O)OC)N=C3)[C@]2(C)[C@H](C)CC[C@]3(C[C@H](O)C(=O)[C@H]32)[C@@H](C)[C@@H]1O [Compound 90, Methyl 7-(2-(((2S,3aR,4R,5R,7S,8S,9R,9aS,12R)-2,8-dihydroxy-4,7,9,12-tetramethyl-3-oxo-7-vinyldecahydro-4,9a-propanocyclopenta[8]annulen-5-yl)oxy)-2-oxoethoxy)-1-hydroxybenzo[d][1,2,3]diazaborinine-2(1H)-carboxylate]	–	–	–
0.5 to 2 (≈ 0.835 to 3.34 µM)	< 0.25	0.003	C=C[C@]1(C)C[C@@H](OC(=O)COc2ccc3c(c2)B(O)N(C(=O)OC)N=C3)[C@]2(C)[C@H](C)CC[C@]3(C[C@H](F)C(=O)[C@H]32)[C@@H](C)[C@@H]1O [Compound 92, Methyl 7-(2-(((2S,3aR,4R,5R,7S,8S,9R,9aS,12R)-2-fluoro-8-hydroxy-4,7,9,12-tetramethyl-3-oxo-7-vinyldecahydro-4,9a-propanocyclopenta[8]annulen-5-yl)oxy)-2-oxoethoxy)-1-hydroxybenzo[d][1,2,3]diazaborinine-2(1H)-carboxylate]	–	–	–
< 0.25	< 0.25	0.046	C=C[C@]1(C)C[C@@H](OC(=O)COc2ccc3c(c2C)B(O)N(C(=O)OC)N=C3)[C@]2(C)[C@H](C)CC[C@]3(C[C@H](F)C(=O)[C@H]32)[C@@H](C)[C@@H]1O [Compound 95, Methyl 7-(2-(((2S,3aR,4R,5R,7S,8S,9R,9aS,12R)-2-fluoro-8-hydroxy-4,7,9,12-tetramethyl-3-oxo-7-vinyldecahydro-4,9a-propanocyclopenta[8]annulen-5-yl)oxy)-2-oxoethoxy)-1-hydroxy-8-methylbenzo[d][1,2,3]diazaborinine-2(1H)-carboxylate]	–	–	–

Source: patent publication US10919916B2, “Boron-containing small molecules” (Bill & Melinda Gates Foundation, priority 2016, dated 2021)
